Data as given in ChEMBL document CHEMBL3351786, “Drug discovery targeting cell division proteins, microtubules and FtsZ” (Bioorg Med Chem, 2014).

Legend:
Type in all cases: functional
HeLa = experiment: Mitotic arrest in human HeLa cells assessed as apoptosis at 5 nM after 24 hrs by TUNEL assay
A2780 [1] = experiment: Resistance factor, ratio of IC50 for paclitaxel-resistant human 1A9PTX10 cells to ratio of IC50 for human A2780 cells
A2780 [2] = experiment: Resistance factor, ratio of IC50 for paclitaxel-resistant human 1A9PTX22 cells to ratio of IC50 for human A2780 cells

Structure (SMILES)	Activity (HeLa) [%]	Ratio IC50 (A2780 [1])	Ratio IC50 (A2780 [2])
CCC(=O)O[C@H]1C(=O)[C@@]2(C)[C@H]([C@H](OC(=O)c3ccccc3)[C@]3(O)C[C@H](OC(=O)[C@H](O)[C@H](C=C(C)C)NC(=O)OC(C)(C)C)C(C)=C1C3(C)C)[C@]1(OC(C)=O)CO[C@@H]1C[C@@H]2O	70	–	–
CCC(=O)O[C@H]1C(=O)[C@@]2(C)[C@H]([C@H](OC(=O)c3cccc(OC)c3)[C@]3(O)C[C@H](OC(=O)[C@H](O)[C@H](C=C(C)C)NC(=O)OC(C)(C)C)C(C)=C1C3(C)C)[C@]1(OC(C)=O)CO[C@@H]1C[C@@H]2O	–	4.8	5.1
